# Reference: US20090004683A1, “Indicator Agent for Noninflammatory Stress Response and Use Thereof” (priority 2004, published 2009)
# Tests used:
# Synovial membrane tissue = test: IL-18 release from synovial membrane tissue with paraquat stimulation; format: cell-based, human; conditions: synovial membrane tissue of articular rheumatism patient, 100 nM paraquat 15 minutes; SOD 1-20 U/ml
# Method: Synovial membrane tissue collected from the articular synovial membrane at a lesion site of an articular rheumatism patient was subjected to tissue culture in an RPMI-1640 medium containing 10% fetal bovine serum by the method of Tanaka et al. (Tanaka M, Harigai M, Kawaguchi Y, Ohta S, Sugiura T, Takagi K, Ohsako-Higami S, Fukasawa C, Hara M, Kamatani N., J. Rheumatol. 2001 August; 28(8):1779-87). The medium was exchanged with the aforementioned medium containing 100 nM of paraquat, which is an active oxygen generator, and the cells were cultured for 15 minutes, after which the medium was exchanged with a paraquat-free medium, and the cells were further cultured for 1 hour, after which the medium was collected, and the concentration of IL-18 protein in the medium was measured.
# IL-18 precursor = test: IL-18 (precursor) level in the adrenal of restraint stress mice; format: in vivo, mouse; conditions: given i.p. during restraint
# Method: For restraint stress, each mouse was kept in a restrainer (a round plastic tube 27 mm in diameter) for 1, 3 or 6 hours, and IL-18 levels were measured. Regarding the analysis of IL-6, each mouse was restrained as described above, and then housed in the starting cage for 6 hours, after which a measurement was performed.
# The anti-ACTH antiserum (50 μl, 1:1), dexamethasone (1 ng/50 μl PBS(−)) or the anti-IL-18 antibody (50 μl, 1:1) was administered intraperitoneally to each mouse; after 10 minutes elapsed, the animal was kept in a restraint tube for 6 hours. Synthetic ACTH (250 μg/50 μl PBS(−)) was injected to the left leg; after 6 hours elapsed, the mice were subjected to the experiment.
# (§1) Each mouse was kept in a restrainer for 1 hour, and Ac-YVAD-CHO (200 μM/50 μl PBS(−)), Z-FA-fmk (100 μM/50 μl PBS(−)) and SB-203580 (100 μg/50 μl PBS(−) per mouse) were administered intraperitoneally. 1 and 3 hours after the start of restraint, SOD-1 (20 U) and DPI (30 μg) were administered intraperitoneally to the mouse, and samples were analyzed by Western blotting.
# Western blot analysis of IL-18 and phosphorylated P38MAP kinase in adrenal tissue was performed as described below. […] Procaspase-11 and activated P38 MAP kinase were quantified using a Science Lab 99 image analysis system (manufactured by Fujifilm).
# [1] = test system: Primary culture human renal proximal tubular epithelial cells; test: IL-18 release from renal tubular epithelial cells with paraquat stimulation; format: cell-based; conditions: renal tubular epithelial cells, 100 nM paraquat 15 minutes; SOD 1-20 U/ml or water-soluble vitamin E 100 nM-10 mM/ml
# Method: Primary culture human renal proximal tubular epithelial cells (purchased from CAMBREX Company) were cultured in a basal medium for renal tubular cells: contents 10 μg/ml hEGF (recombinant human epithelial cell growth factor) 0.5 ml, 5 mg/ml insulin 0.5 ml, 0.5 mg/ml hydrocortisone 0.5 ml, FBS (fetal bovine serum) 2.5 ml, 0.5 mg/ml epinephrine 0.5 ml, 6.5 μg/ml triiodothyronine 0.5 ml, 10 mg/ml transferrin 0.5 ml, 50 mg/ml gentamycin, 50 μg/ml amphotericin-B 0.5 ml), in petri dishes for cell culture 6 cm in diameter at 1.0-2.0×10^6/dish. This was cultured in the aforementioned medium containing 100 nM of paraquat, which is an active oxygen generator, for 15 minutes, after which the medium was exchanged with the same but paraquat-free medium. After the cells were further cultured for 1 hour, the medium was collected, and the concentration of IL-18 protein in the medium was measured.
# caspase-1 = target: T1, caspase-1 (Mus musculus, UniProt P29452); test: Caspase-1 activity in the adrenal of restraint stress mice (Ac-YVAD-MCA fluorescent substrate); format: in vivo; conditions: given i.p. during restraint
# T1 construct: from tissue; host or cells: mouse adrenal (homogenate)
# T1 sequence (P29452 119-296 limits assumed): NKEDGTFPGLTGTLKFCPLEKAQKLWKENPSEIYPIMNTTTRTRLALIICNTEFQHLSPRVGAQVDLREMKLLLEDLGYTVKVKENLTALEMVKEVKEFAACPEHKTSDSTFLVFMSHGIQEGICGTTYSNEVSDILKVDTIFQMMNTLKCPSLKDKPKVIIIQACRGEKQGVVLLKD
# T1 sequence (P29452 315-402 limits assumed): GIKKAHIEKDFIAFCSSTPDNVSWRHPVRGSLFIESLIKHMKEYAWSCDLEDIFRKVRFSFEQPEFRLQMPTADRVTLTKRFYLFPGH
# Method: as §1
# Caspase-1 activity in the adrenal was measured using a caspase assay kit (manufactured by BD-Pharmingen). Describing briefly, a homogenate of adrenal tissue was incubated with Ac-YVAD-MCA (acetyl-L-tyrosyl-L-valyl-L-alanyl-L-aspartic acid 4-methyl-coumaryl-7-amide), which is a fluorescent substrate for caspase-1, and the MCA leaving from the aforementioned substrate was measured using a fluorescence plate reader (excitation wavelength 380 nm, irradiation wavelength 420-460 nm).
# [2] = test system: Primary culture human skin keratinocytes; test: IL-18 release from keratinocytes with paraquat stimulation; format: cell-based; conditions: keratinocytes, 1 μM paraquat 15 minutes; SOD 1-20 U/ml or water-soluble vitamin E 100 nM-10 mM/ml
# Method: Primary culture human skin keratinocytes (keratinocytes) were cultured in a basal medium for keratinocytes contained in petri dishes for cell culture 6 cm in diameter at 1.0-2.0×10^6/dish. This was cultured in the aforementioned medium containing 1 μM of paraquat, which is an active oxygen generator, for 15 minutes, after which the medium was exchanged with a paraquat-free medium, and the cells were further cultured for 1 hour, after which the medium was collected, and the concentration of IL-18 protein in the medium was measured.
# Brain microglia = test: IL-18 release from microglia with paraquat stimulation; format: cell-based, mouse; conditions: microglia, 100 nM paraquat 1 hour; SOD 1-20 U/ml or water-soluble vitamin E 100 nM-10 mM/ml
# Method: Brain microglia isolated from the mouse neonatal brain by the method of Hassan et al. (Hassan N F, Rifat S, Campbell D E, McCawley L J, Douglas S D. J. Leukoc Biol. 1991 July; 50(1):86-92) were cultured at 1.5-2.0×10^6/ml. This was cultured in Dulbecco's minimum essential medium containing 100 nM of paraquat, which is an active oxygen generator, for 1 hour, after which the medium was exchanged with a paraquat-free medium. After further cultivation for 3 hours, the medium was collected, and the concentration of IL-18 protein in the medium was measured.
substance,measurement,setting,value
SOD: superoxide dismutase (SOD)-1 purchased from Sigma; active oxygen eliminator,activation and release of IL-18 into the medium,Synovial membrane tissue,suppressed
same,IL-18 precursor protein level in the adrenal,IL-18 precursor,did not reduce
same,activation and release of IL-18 into the medium,[1],suppressed
same,stress-induced increase in caspase-1 activity in the adrenal,caspase-1,reduced
same,activation and release of IL-18 into the medium,[2],suppressed
same,activation and release of IL-18 into the medium,Brain microglia,suppressed
